Twelve compounds from patent US11673894B2, “Imidazopyrimidines and triazolopyrimidines as A2A / A2B inhibitors” (Incyte Corporation, priority 2018, dated 2023) can be followed below.

Test [1] has as its target human adenosine A2B receptor (Homo sapiens (Human), UniProt P29275). The test is described as follows: Adenosine A2B Receptor Cyclic AMP GS Assay. The class given is cell-based. As to conditions: HEK-293 cells expressing human A2B receptor; agonist NECA at 12 nM; cAMP accumulation (FRET); read-out: A2B_cAMP_EC50. The protocol:
Stably transfected HEK-293 cells expressing the human adenosine A2B receptor (Perkin Elmer) were maintained in MEM culture medium with 10% FBS and 100 μg/ml Geneticin (Life Technologies). 18 to 24 hours prior to assay, geneticin was removed from culture. The cisbio cAMP-GS Dynamic kit utilizing the FRET (Fluorescence Resonance Energy Transfer) technology was used to measure cAMP accumulation in the cells. Compounds of the present disclosure at an appropriate concentration were mixed with 10000 cells/well in white 96 well half area plates (Perkin Elmer) for 30 min at RT gently shaking. Agonist, NECA (R&D Technologies) at 12 nM was added to each well for 60 min at RT gently shaking. Detection reagents, d2-labeled cAMP (acceptor) and anti-cAMP cryptate (donor) were added to each well for 60 min at RT gently shaking. Plates were read on Pherastar (BMG Labtech), fluorescence ratio 665/620 was calculated and EC50 determination was performed by fitting the curve of percent of control versus the log of the compound concentration using GraphPad Prism.

For test [2], the target named is Adenosine A2A receptor (Homo sapiens (Human), UniProt P29274). The test is described as follows: A2A Tag-lite HTRF Assay. As to conditions: Tag-lite Adenosine A2A labeled cells; A2A Receptor Red antagonist fluorescent ligand 12.5 nM; one-site competitive binding model; read-out: A2A_Ki. From the text: The final concentration of DMSO was 1%.
Chain of Adenosine A2A receptor (P29274 whole entry): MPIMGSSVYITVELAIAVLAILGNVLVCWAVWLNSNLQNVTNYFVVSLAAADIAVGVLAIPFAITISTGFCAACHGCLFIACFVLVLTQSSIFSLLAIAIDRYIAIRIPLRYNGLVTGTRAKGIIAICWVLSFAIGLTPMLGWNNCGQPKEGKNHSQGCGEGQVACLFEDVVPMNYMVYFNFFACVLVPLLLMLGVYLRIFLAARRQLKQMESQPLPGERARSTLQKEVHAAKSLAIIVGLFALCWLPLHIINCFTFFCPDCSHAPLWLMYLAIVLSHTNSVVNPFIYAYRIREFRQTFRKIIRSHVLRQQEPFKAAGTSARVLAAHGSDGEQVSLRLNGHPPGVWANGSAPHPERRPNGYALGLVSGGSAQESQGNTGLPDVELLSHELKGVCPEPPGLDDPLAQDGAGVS

Chain of human adenosine A2B receptor (P29275 whole entry): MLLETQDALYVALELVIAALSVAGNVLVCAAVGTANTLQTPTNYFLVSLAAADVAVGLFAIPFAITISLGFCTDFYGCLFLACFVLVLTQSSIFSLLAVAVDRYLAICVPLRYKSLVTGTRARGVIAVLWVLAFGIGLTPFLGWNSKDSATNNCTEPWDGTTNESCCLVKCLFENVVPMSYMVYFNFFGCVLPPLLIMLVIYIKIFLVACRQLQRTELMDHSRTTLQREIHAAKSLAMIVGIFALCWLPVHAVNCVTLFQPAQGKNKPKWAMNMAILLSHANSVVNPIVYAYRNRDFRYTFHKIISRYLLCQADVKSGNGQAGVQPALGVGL

With `CCNC(=O)c1cn2c(N)nc(-c3cccc(C#N)c3)c(-c3ccncc3Cl)c2n1` [Example 29, 5-Amino-7-(3-cyanophenyl)-N-ethyl-8-(3-chloropyridin-4-yl)imidazo[1,2-c]pyrimidine-2-carboxamide], the EC50 in test [1] is under 10 nM. In test [2], the Ki is under 10 nM.
As for `CCNC(=O)c1cn2c(N)nc(-c3cccc(C#N)c3)c(-c3ccncc3OC)c2n1` [Example 30, 5-Amino-7-(3-cyanophenyl)-N-ethyl-8-(3-methoxypyridin-4-yl)imidazo[1,2-c]pyrimidine-2-carboxamide], the EC50 in test [1] is under 10 nM. The Ki in test [2] is under 10 nM.
Regarding `CCNC(=O)c1cn2c(N)nc(-c3cccc(C#N)c3)c(-c3ccncc3C#N)c2n1` [Example 31, 5-Amino-7-(3-cyanophenyl)-N-ethyl-8-(3-cyanopyridin-4-yl)imidazo[1,2-c]pyrimidine-2-carboxamide], the EC50 in test [1] was in the range of 10 to 100 nM. The Ki in test [2] is under 10 nM.
The matching figures for `CCNC(=O)c1cn2c(N)nc(-c3cccc(C#N)c3)c(-c3ccc(C(N)=O)cc3)c2n1` [Example 32, 5-Amino-8-(4-carbamoylphenyl)-7-(3-cyanophenyl)-N-ethylimidazo[1,2-c]pyrimidine-2-carboxamide]: 100 to 1000 nM and under 10 nM.
Consider `CCNC(=O)c1cn2c(N)nc(-c3cccc(C#N)c3)c(-c3cnn4ccccc34)c2n1` [Example 33, 5-Amino-7-(3-cyanophenyl)-N-ethyl-8-(pyrazolo[1,5-a]pyridin-3-yl)imidazo[1,2-c]pyrimidine-2-carboxamide], for which, in test [1], the EC50 lay within 100 to 1000 nM. In addition, the Ki in test [2] is under 10 nM.
In the same order, the values of `CCNC(=O)c1cn2c(N)nc(-c3cccc(C#N)c3)c(-c3cn[nH]c3C)c2n1` [Example 34, 5-Amino-7-(3-cyanophenyl)-N-ethyl-8-(5-methyl-1H-pyrazol-4-yl)imidazo[1,2-c]pyrimidine-2-carboxamide] are under 10 nM and under 10 nM.
In the same order, the values of `CCNC(=O)c1cn2c(N)nc(-c3cccc(C#N)c3)c(-c3ccnn3CC)c2n1` [Example 35, 5-Amino-7-(3-cyanophenyl)-N-ethyl-8-(1-ethyl-1H-pyrazol-5-yl)imidazo[1,2-c]pyrimidine-2-carboxamide] are under 10 nM and under 10 nM.
For `CCNC(=O)c1cn2c(N)nc(-c3cccc(C#N)c3)c(-c3ccnn3C(C)C)c2n1` [Example 36, 5-Amino-7-(3-cyanophenyl)-N-ethyl-8-(1-isopropyl-1H-pyrazol-5-yl)imidazo[1,2-c]pyrimidine-2-carboxamide], the EC50 in test [1] was in the range of 10 to 100 nM. Besides, the Ki in test [2] is under 10 nM.
The matching figures for `CCCn1nccc1-c1c(-c2cccc(C#N)c2)nc(N)n2cc(C(=O)NCC)nc12` [Example 37, 5-Amino-7-(3-cyanophenyl)-N-ethyl-8-(1-propyl-1H-pyrazol-5-yl)imidazo[1,2-c]pyrimidine-2-carboxamide]: under 10 nM and under 10 nM.
Take `CCNC(=O)c1cn2c(N)nc(-c3cccc(C#N)c3)c(-c3ccncn3)c2n1` [Example 38, 5-Amino-7-(3-cyanophenyl)-N-ethyl-8-(pyrimidin-4-yl)imidazo[1,2-c]pyrimidine-2-carboxamide]: in test [1], the EC50 was in the range of 10 to 100 nM. Further, the Ki in test [2] is under 10 nM.
The matching figures for `CCNC(=O)c1cn2c(N)nc(-c3cccc(C#N)c3)c(-c3ccnc4c3OCCO4)c2n1` [Example 39, 5-Amino-7-(3-cyanophenyl)-8-(2,3-dihydro-[1,4]dioxino[2,3-b]pyridin-8-yl)-N-ethylimidazo[1,2-c]pyrimidine-2-carboxamide]: 10 to 100 nM and under 10 nM.
With `CCNC(=O)c1cn2c(N)nc(-c3cccc(C#N)c3)c(C3CC3)c2n1` [Example 40, 5-Amino-7-(3-cyanophenyl)-8-cyclopropyl-N-ethylimidazo[1,2-c]pyrimidine-2-carboxamide], in test [1], the EC50 was over 1000 nM. In addition, in test [2], the Ki lay within 10 to 100 nM.
